Assay results: patent EP4810052A2, “HCRHR2 SELECTIVE POLYPEPTIDES” (Gubra A/S, priority 2023, dated 2026)
Read-outs that look alike come from different tables or passages of the source. Starred links: 1 amine or outer side, 2 acyl side, 3 side chain; linkers in the order of their positions; H or OH if unused. Non-standard residues stand in square brackets, D forms with d. Residues, ends and D or L forms follow the SMILES beside them. Groups on a side chain read outwards from the residue. *: point of attachment. C20 diacid = O=C(O)CCCCCCCCCCCCCCCCCCC(=O)*; γGlu = O=C(O)[C@H](CCC(=O)[*:2])N[*:1]; NMeI = CC[C@H](C)[C@H](NC)C(=O)O; Nle = CCCC[C@H](N)C(=O)O; Ac5c = NC1(C(=O)O)CCCC1; AEEA = NCCOCCOCC(=O)O; Aib = CC(C)(N)C(=O)O

Tests used:
hCRHR2 = target: T1, hCRHR2 (Homo sapiens, UniProt Q13324); assay: HTRF cAMP assay, determination of hCRHR2 potency (peptide libraries 5 conc., purified peptides 11 conc.); type: cell-based
T1 sequence (Q13324 1-411): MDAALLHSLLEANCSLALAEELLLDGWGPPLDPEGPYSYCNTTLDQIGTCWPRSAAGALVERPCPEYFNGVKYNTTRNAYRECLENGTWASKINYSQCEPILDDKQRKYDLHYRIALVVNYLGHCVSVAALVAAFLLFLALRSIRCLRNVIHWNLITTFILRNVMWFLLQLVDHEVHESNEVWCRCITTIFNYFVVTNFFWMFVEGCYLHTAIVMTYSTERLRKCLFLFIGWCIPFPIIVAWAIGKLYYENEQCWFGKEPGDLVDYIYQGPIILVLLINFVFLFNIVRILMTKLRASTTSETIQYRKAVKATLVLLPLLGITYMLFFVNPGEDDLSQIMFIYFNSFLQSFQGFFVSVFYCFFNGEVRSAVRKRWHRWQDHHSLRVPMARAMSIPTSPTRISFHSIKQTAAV
Source text: HTRF (CisBio) cAMP assay: The assay technology has thoroughly been described in the CisBio HTRF cAMP assay Kit manual (# 62AM4PEC). Briefly, time resolved fluorescence technic was applied to measure cAMP. This technic is based on a competitive immunoassay using cryptate-labelled anti-cAMP antibody and d2-labeled cAMP. In the absence of cellular cAMP, the anti-cAMP cryptate conjugate may get into proximity to cAMP-d2 conjugate and energy (FRET) can be transferred from cryptate to d2.
CHO-K1 cells stably expressing the human corticotropin-releasing hormone receptor 2 (Eurofins/DiscoverX, Cat #95-0048C2 hCRHR2 stable monoclonal cell lines) were used as cells in suspension, brought to life from frozen cell stocks immediately before assay performance.
Concentration-response evaluation of compounds was performed with 5 concentrations of agonist peptides and EC50 values were calculated by nonlinear regression using sigmoid concentration-response with variable slope.
Concentration-response evaluation of compounds was performed with 11 concentrations of agonist peptides and EC50 values were calculated by nonlinear regression using sigmoid concentration-response with variable slope.

hCRHR1 = target: T2, hCRHR1 (Homo sapiens, UniProt P34998); assay: HTRF cAMP assay, determination of hCRHR1 potency (peptide libraries 5 conc., purified peptides 11 conc.); type: cell-based
T2 sequence (P34998 24-415): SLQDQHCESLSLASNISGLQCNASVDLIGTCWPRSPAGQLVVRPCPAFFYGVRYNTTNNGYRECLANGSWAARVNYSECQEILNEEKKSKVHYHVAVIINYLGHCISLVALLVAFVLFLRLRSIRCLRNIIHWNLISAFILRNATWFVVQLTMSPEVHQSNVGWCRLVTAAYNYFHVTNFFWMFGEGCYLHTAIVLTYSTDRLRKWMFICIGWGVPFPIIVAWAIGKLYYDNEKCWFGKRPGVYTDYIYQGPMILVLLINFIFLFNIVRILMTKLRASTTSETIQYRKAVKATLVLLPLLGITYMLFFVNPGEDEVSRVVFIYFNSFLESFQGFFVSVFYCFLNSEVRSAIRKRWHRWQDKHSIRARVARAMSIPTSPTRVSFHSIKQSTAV
Source text: HTRF (CisBio) cAMP assay: The assay technology has thoroughly been described in the CisBio HTRF cAMP assay Kit manual (# 62AM4PEC). Briefly, time resolved fluorescence technic was applied to measure cAMP. This technic is based on a competitive immunoassay using cryptate-labelled anti-cAMP antibody and d2-labeled cAMP. In the absence of cellular cAMP, the anti-cAMP cryptate conjugate may get into proximity to cAMP-d2 conjugate and energy (FRET) can be transferred from cryptate to d2. CHO-K1 cells stably expressing the human corticotropin-releasing hormone receptor 1 (Eurofins/DiscoverX Cat #95-0047C2 hCRHR1 stable monoclonal cell lines) were used as cells in suspension, brought to life from frozen cell stocks immediately before assay performance. […] Concentration-response evaluation of compounds was performed with 5 concentrations of agonist peptides and EC50 values were calculated by nonlinear regression using sigmoid concentration-response with variable slope. Concentration-response evaluation of compounds was performed with 11 concentrations of agonist peptides and EC50 values were calculated by nonlinear regression using sigmoid concentration-response with variable slope.

[1] = Table 4, library peptides having X^38 = Nle, read-out: hCRHR2 pEC50 (converted)
[2] = Table 4, library peptides having X^38 = Nle, read-out: hCRHR1 pEC50 (converted)
[3] = library peptides, matched molecular pairs L vs Nle in position X^38, read-out: Potency hCRHR2 pEC50 (converted)
[4] = library peptides, matched molecular pairs L vs Nle in position X^38, read-out: Potency hCRHR1 pEC50 (converted)

| EC50 (hCRHR2; [1]) [nM] | EC50 (hCRHR1; [2]) [nM] | EC50 (hCRHR2; [3]) [nM] | EC50 (hCRHR1; [4]) [nM] | SMILES |
| --- | --- | --- | --- | --- |
| 0.00501 | 100000 | – | – | CCCC[C@H](NC(=O)[C@@H](NC(=O)[C@H](CCC(=O)O)NC(=O)[C@H](C)NC(=O)[C@H](CC(N)=O)NC(=O)C(C)(C)NC(=O)[C@H](CCCCNC(=O)COCCOCCNC(=O)COCCOCCNC(=O)CC[C@H](NC(=O)CC[C@H](NC(=O)CCCCCCCCCCCCCCCCCCC(=O)O)C(=O)O)C(=O)O)NC(=O)[C@H](C)NC(=O)[C@H](CCC(N)=O)NC(=O)[C@H](CCC(=O)O)NC(=O)[C@H](CCCNC(=N)N)NC(=O)[C@H](C)NC(=O)[C@H](C)NC(=O)[C@H](CCCNC(=N)N)NC(=O)[C@H](C)NC(=O)[C@H](CCCNC(=N)N)NC(=O)[C@H](C)NC(=O)[C@H](CCC(N)=O)NC(=O)[C@H](Cc1ccccc1)NC(=O)[C@H](CC(C)C)NC(=O)[C@H](CC(C)C)NC(=O)[C@@H](NC(=O)[C@H](CCC(N)=O)NC(=O)[C@H](CC(C)C)NC(=O)[C@H](CC(C)C)NC(=O)CNC(=O)[C@@H](NC(=O)[C@@H]1CCCN1C(=O)[C@@H](NC(=O)[C@H](CC(=O)O)NC(=O)[C@H](CC(C)C)NC(=O)[C@H](CO)NC(=O)[C@H](CC(C)C)NC(=O)[C@@H](NC(=O)[C@@H](NC)[C@@H](C)CC)C(C)C)C(C)C)[C@@H](C)CC)[C@@H](C)CC)[C@@H](C)CC)C(=O)N[C@@H](C)C(=O)N[C@@H](CCC(=O)O)C(=O)N[C@H](C(N)=O)C(C)C [compound 128] (H-[NMeI]VLSLDVPIGLLQILLFQARARAAREQAK([AEEA-AEEA-γGlu-γGlu-C20 diacid])[Aib]NAEI[Nle]AEV-NH2) |
| 0.0316 | 63100 | – | – | CCCC[C@H](NC(=O)[C@@H](NC(=O)[C@H](CCC(=O)O)NC(=O)C(C)(C)NC(=O)[C@H](CC(N)=O)NC(=O)[C@@H](NC(=O)[C@H](CCCCNC(=O)COCCOCCNC(=O)COCCOCCNC(=O)CC[C@H](NC(=O)CC[C@H](NC(=O)CCCCCCCCCCCCCCCCCCC(=O)O)C(=O)O)C(=O)O)NC(=O)[C@H](C)NC(=O)[C@H](CCC(N)=O)NC(=O)[C@H](CCC(=O)O)NC(=O)[C@H](CCCNC(=N)N)NC(=O)[C@H](C)NC(=O)[C@H](C)NC(=O)[C@H](CCCNC(=N)N)NC(=O)[C@H](C)NC(=O)[C@H](CCCNC(=N)N)NC(=O)[C@H](C)NC(=O)[C@H](CCC(N)=O)NC(=O)[C@H](CCCNC(=N)N)NC(=O)[C@H](CC(C)C)NC(=O)[C@H](CC(C)C)NC(=O)[C@@H](NC(=O)[C@H](CCC(N)=O)NC(=O)[C@H](CC(C)C)NC(=O)[C@H](CC(C)C)NC(=O)CNC(=O)[C@@H](NC(=O)[C@@H]1CCCN1C(=O)[C@@H](NC(=O)[C@H](CC(=O)O)NC(=O)[C@H](CC(C)C)NC(=O)[C@H](CO)NC(=O)[C@H](CC(C)C)NC(=O)[C@@H](NC(=O)[C@@H](NC)[C@@H](C)CC)C(C)C)C(C)C)[C@@H](C)CC)[C@@H](C)CC)[C@@H](C)O)[C@@H](C)CC)C(=O)N[C@@H](C)C(=O)N[C@@H](CCC(=O)O)C(=O)N[C@H](C(N)=O)C(C)C [compound 198] (H-[NMeI]VLSLDVPIGLLQILLRQARARAAREQAK([AEEA-AEEA-γGlu-γGlu-C20 diacid])TN[Aib]EI[Nle]AEV-NH2) |
| – | – | 0.316 | 100 | CC[C@H](C)[C@H](N)C(=O)N[C@H](C(=O)N[C@@H](CC(C)C)C(=O)N[C@@H](CO)C(=O)N[C@@H](CC(C)C)C(=O)N[C@@H](CC(=O)O)C(=O)N[C@H](C(=O)N1CCC[C@H]1C(=O)N[C@H](C(=O)NCC(=O)N[C@@H](CC(C)C)C(=O)N[C@@H](CC(C)C)C(=O)N[C@@H](CCC(N)=O)C(=O)N[C@H](C(=O)N[C@@H](CC(C)C)C(=O)N[C@@H](CC(C)C)C(=O)N[C@@H](CCC(=O)O)C(=O)N[C@@H](CCC(N)=O)C(=O)N[C@@H](C)C(=O)N[C@@H](CCCNC(=N)N)C(=O)N[C@@H](C)C(=O)N[C@@H](CCC(=O)O)C(=O)N[C@@H](C)C(=O)N[C@@H](CC(C)C)C(=O)N[C@@H](CCCNC(=N)N)C(=O)N[C@@H](CCC(N)=O)C(=O)N[C@@H](CCC(N)=O)C(=O)N[C@@H](C)C(=O)N[C@@H](CCCCNC(=O)COCCOCCNC(=O)COCCOCCNC(=O)CC[C@H](NC(=O)CC[C@H](NC(=O)CCCCCCCCCCCCCCCCCCC(=O)O)C(=O)O)C(=O)O)C(=O)N[C@H](C(=O)N[C@@H](CC(N)=O)C(=O)N[C@@H](C)C(=O)N[C@@H](CCC(=O)O)C(=O)N[C@H](C(=O)N[C@@H](CC(C)C)C(=O)N[C@@H](C)C(=O)N[C@@H](CCC(=O)O)C(=O)N[C@H](C(N)=O)C(C)C)[C@@H](C)CC)[C@@H](C)O)[C@@H](C)CC)[C@@H](C)CC)C(C)C)C(C)C [compound 58] (H-IVLSLDVPIGLLQILLEQARAEALRQQAK([AEEA-AEEA-γGlu-γGlu-C20 diacid])TNAEILAEV-NH2) |
| – | – | 0.398 | 7.94 | CC[C@H](C)[C@H](N)C(=O)N[C@H](C(=O)N[C@@H](CC(C)C)C(=O)N[C@@H](CO)C(=O)N[C@@H](CC(C)C)C(=O)N[C@@H](CC(=O)O)C(=O)NC1(C(=O)N2CCC[C@H]2C(=O)N[C@H](C(=O)NCC(=O)N[C@@H](CC(C)C)C(=O)N[C@@H](CC(C)C)C(=O)N[C@@H](CCC(N)=O)C(=O)N[C@H](C(=O)N[C@@H](CC(C)C)C(=O)N[C@@H](CC(C)C)C(=O)N[C@@H](CCC(=O)O)C(=O)N[C@@H](CCC(N)=O)C(=O)N[C@@H](C)C(=O)N[C@@H](CCCNC(=N)N)C(=O)N[C@@H](C)C(=O)N[C@@H](CCCNC(=N)N)C(=O)N[C@@H](CCC(N)=O)C(=O)N[C@@H](C)C(=O)N[C@@H](CCCNC(=N)N)C(=O)N[C@@H](CCC(=O)O)C(=O)N[C@@H](CCC(N)=O)C(=O)N[C@@H](C)C(=O)N[C@@H](CCCCNC(=O)COCCOCCNC(=O)COCCOCCNC(=O)CC[C@H](NC(=O)CC[C@H](NC(=O)CCCCCCCCCCCCCCCCCCC(=O)O)C(=O)O)C(=O)O)C(=O)N[C@H](C(=O)N[C@@H](CC(N)=O)C(=O)N[C@@H](C)C(=O)N[C@@H](CCC(=O)O)C(=O)N[C@H](C(=O)N[C@@H](CC(C)C)C(=O)N[C@@H](C)C(=O)N[C@@H](CCC(=O)O)C(=O)N[C@H](C(N)=O)C(C)C)[C@@H](C)CC)[C@@H](C)O)[C@@H](C)CC)[C@@H](C)CC)CCCC1)C(C)C [compound 78] (H-IVLSLD[Ac5c]PIGLLQILLEQARARQAREQAK([AEEA-AEEA-γGlu-γGlu-C20 diacid])TNAEILAEV-NH2) |
